Measurements published in the NIST ThermoML archive (doi:10.1016/j.fluid.2016.07.034).

Experiment: molar heat capacity at constant pressure
Settings: Flow calorimetry

CCF [fluoroethane]
Settings	molar heat capacity at constant pressure [J/K/mol]
303.42 K, 1340 kPa, Liquid	107.27
303.47 K, 1930 kPa, Liquid	106.74
303.48 K, 6470 kPa, Liquid	102.68
303.49 K, 9530 kPa, Liquid	100.86
303.5 K, 2520 kPa, Liquid	106.24
303.5 K, 8030 kPa, Liquid	101.83
303.5 K, 10100 kPa, Liquid	100.8
303.51 K, 7100 kPa, Liquid	102.32
303.51 K, 11050 kPa, Liquid	100.2
303.52 K, 5200 kPa, Liquid	103.84
303.52 K, 8440 kPa, Liquid	101.93
303.52 K, 10520 kPa, Liquid	100.64
303.52 K, 11560 kPa, Liquid	100.42
303.53 K, 3000 kPa, Liquid	106.02
303.53 K, 5540 kPa, Liquid	103.57
303.53 K, 5980 kPa, Liquid	103.24
303.53 K, 7520 kPa, Liquid	102.26
303.53 K, 9130 kPa, Liquid	101.37
303.54 K, 12050 kPa, Liquid	100.01
303.55 K, 3510 kPa, Liquid	105.63
303.55 K, 4550 kPa, Liquid	104.88
303.57 K, 4010 kPa, Liquid	105.42
313.31 K, 2010 kPa, Liquid	110.61
313.33 K, 3080 kPa, Liquid	109.26
313.35 K, 2560 kPa, Liquid	110.04
313.35 K, 3500 kPa, Liquid	108.56
313.36 K, 4000 kPa, Liquid	108.09
313.37 K, 4510 kPa, Liquid	107.49
313.37 K, 7030 kPa, Liquid	104.99
313.38 K, 8490 kPa, Liquid	103.71
313.38 K, 9510 kPa, Liquid	102.92
313.39 K, 5070 kPa, Liquid	107.08
313.39 K, 7490 kPa, Liquid	104.67
313.4 K, 9090 kPa, Liquid	103.61
313.4 K, 10010 kPa, Liquid	102.8
313.41 K, 1510 kPa, Liquid	112.39
313.41 K, 6080 kPa, Liquid	106.37
313.42 K, 5490 kPa, Liquid	106.99
313.42 K, 7980 kPa, Liquid	104.69
313.42 K, 10490 kPa, Liquid	102.75
313.43 K, 6510 kPa, Liquid	106.03
313.43 K, 10980 kPa, Liquid	102.52
313.47 K, 11470 kPa, Liquid	102.55
315.33 K, 1020 kPa, Gas	77.84
315.39 K, 1110 kPa, Gas	80.21
315.56 K, 1220 kPa, Gas	83.09
324.11 K, 2050 kPa, Liquid	115.84
324.13 K, 2570 kPa, Liquid	114.7
324.13 K, 8110 kPa, Liquid	105.47
324.14 K, 5980 kPa, Liquid	108.6
324.15 K, 3000 kPa, Liquid	113.84
324.15 K, 8550 kPa, Liquid	105.2
324.16 K, 4060 kPa, Liquid	111.82
324.16 K, 6470 kPa, Liquid	107.92
324.16 K, 7520 kPa, Liquid	106.39
324.17 K, 5510 kPa, Liquid	109.38
324.17 K, 10040 kPa, Liquid	103.35
324.18 K, 3500 kPa, Liquid	113.06
324.18 K, 4510 kPa, Liquid	111.09
324.19 K, 7020 kPa, Liquid	107.27
324.19 K, 9040 kPa, Liquid	104.9
324.19 K, 10510 kPa, Liquid	103.17
324.19 K, 11010 kPa, Liquid	102.91
324.21 K, 5030 kPa, Liquid	110.51
324.21 K, 9450 kPa, Liquid	104.56
324.21 K, 11610 kPa, Liquid	102.46
324.22 K, 12030 kPa, Liquid	102.24
325.23 K, 1300 kPa, Gas	79.4
325.26 K, 1210 kPa, Gas	77.2
325.57 K, 1110 kPa, Gas	75.5
333.86 K, 2520 kPa, Liquid	124.88
333.92 K, 3010 kPa, Liquid	123.2
333.97 K, 5000 kPa, Liquid	117.16
333.97 K, 5500 kPa, Liquid	115.91
333.98 K, 5990 kPa, Liquid	114.8
333.99 K, 3510 kPa, Liquid	121.92
333.99 K, 4620 kPa, Liquid	118.27
333.99 K, 9500 kPa, Liquid	108.39
334 K, 4070 kPa, Liquid	120.01
334 K, 6530 kPa, Liquid	113.92
334.01 K, 10060 kPa, Liquid	108
334.02 K, 7050 kPa, Liquid	112.82
334.03 K, 8960 kPa, Liquid	109.42
334.03 K, 10520 kPa, Liquid	107.4
334.03 K, 11040 kPa, Liquid	107.08
334.05 K, 7490 kPa, Liquid	112.09
334.05 K, 8350 kPa, Liquid	110.82
334.05 K, 11630 kPa, Liquid	106.69
334.07 K, 12280 kPa, Liquid	106.31
334.76 K, 1410 kPa, Gas	77.78
335.09 K, 1600 kPa, Gas	82.79
335.23 K, 1510 kPa, Gas	80.11
335.46 K, 1300 kPa, Gas	75.24
335.63 K, 1210 kPa, Gas	74.2
343.4 K, 2840 kPa, Liquid	135.92
343.44 K, 3020 kPa, Liquid	134.94
343.77 K, 3540 kPa, Liquid	133.68
343.84 K, 4040 kPa, Liquid	131.08
343.88 K, 4520 kPa, Liquid	129.17
343.89 K, 5970 kPa, Liquid	123.05
343.9 K, 6530 kPa, Liquid	121.47
343.9 K, 7040 kPa, Liquid	120.17
343.9 K, 7540 kPa, Liquid	118.86
343.91 K, 5560 kPa, Liquid	124.9
343.91 K, 8070 kPa, Liquid	117.76
343.91 K, 8530 kPa, Liquid	116.74
343.92 K, 9010 kPa, Liquid	115.78
343.92 K, 9480 kPa, Liquid	114.8
343.92 K, 10010 kPa, Liquid	113.86
343.92 K, 10500 kPa, Liquid	112.99
343.93 K, 5100 kPa, Liquid	126.98
343.93 K, 11010 kPa, Liquid	112.27
343.96 K, 11570 kPa, Liquid	111.8
343.99 K, 12130 kPa, Liquid	111.22
344.36 K, 2000 kPa, Gas	89.95
345.01 K, 1810 kPa, Gas	82.66
345.19 K, 1220 kPa, Gas	72.72
345.35 K, 1600 kPa, Gas	77.74
345.47 K, 1420 kPa, Gas	74.9
353.68 K, 3480 kPa, Liquid	157.19
353.77 K, 8480 kPa, Liquid	121.76
353.78 K, 7950 kPa, Liquid	123.23
353.79 K, 6470 kPa, Liquid	128.91
353.79 K, 9090 kPa, Liquid	120.56
353.79 K, 10010 kPa, Liquid	118.76
353.8 K, 7530 kPa, Liquid	124.7
353.8 K, 9570 kPa, Liquid	119.62
353.8 K, 10480 kPa, Liquid	117.97
353.81 K, 6000 kPa, Liquid	131.53
353.81 K, 7130 kPa, Liquid	126.37
353.81 K, 11040 kPa, Liquid	117.35
353.82 K, 4030 kPa, Liquid	149.07
353.82 K, 5500 kPa, Liquid	134.57
353.84 K, 11540 kPa, Liquid	116.89
353.85 K, 5030 kPa, Liquid	138.32
353.86 K, 4500 kPa, Liquid	143.57
353.87 K, 11950 kPa, Liquid	116.16
355.25 K, 1910 kPa, Gas	81.51
355.27 K, 1520 kPa, Gas	75.85
355.27 K, 1700 kPa, Gas	78.58
355.27 K, 2110 kPa, Gas	85.11
355.28 K, 1310 kPa, Gas	73.7
355.3 K, 1130 kPa, Gas	71.61
355.31 K, 2610 kPa, Gas	99.72
355.33 K, 2820 kPa, Gas	109.04
355.48 K, 2360 kPa, Gas	90.82
355.52 K, 2590 kPa, Gas	97.73
363.33 K, 4330 kPa, Liquid	193.61
363.59 K, 7000 kPa, Liquid	139.97
363.59 K, 7500 kPa, Liquid	136.22
363.59 K, 8480 kPa, Liquid	130.33
363.6 K, 8030 kPa, Liquid	132.67
363.61 K, 9520 kPa, Liquid	125.95
363.61 K, 10000 kPa, Liquid	123.85
363.62 K, 6030 kPa, Liquid	150.44
363.62 K, 6520 kPa, Liquid	144.76
363.63 K, 8990 kPa, Liquid	128.17
363.66 K, 5490 kPa, Liquid	159.6
363.66 K, 10580 kPa, Liquid	122.57
363.68 K, 11000 kPa, Liquid	121.51
363.7 K, 4990 kPa, Liquid	171.83
363.71 K, 11510 kPa, Liquid	120.57
363.75 K, 12010 kPa, Liquid	119.55
365.28 K, 2190 kPa, Gas	82.06
365.28 K, 2400 kPa, Gas	85.63
365.29 K, 2010 kPa, Gas	79.35
365.3 K, 1810 kPa, Gas	76.69
365.33 K, 2600 kPa, Gas	89.76
365.34 K, 1600 kPa, Gas	74.44
365.39 K, 1200 kPa, Gas	71.16
365.39 K, 1410 kPa, Gas	72.82
365.42 K, 2800 kPa, Gas	94.54
365.46 K, 2990 kPa, Gas	99.69
365.54 K, 3400 kPa, Gas	118.14
365.75 K, 3200 kPa, Gas	107.31
373.37 K, 5540 kPa, Liquid	218.6
373.47 K, 9520 kPa, Liquid	134.79
373.48 K, 9010 kPa, Liquid	138.16
373.53 K, 8500 kPa, Liquid	142.08
373.53 K, 9990 kPa, Liquid	132.61
373.53 K, 11480 kPa, Liquid	126.08
373.54 K, 8000 kPa, Liquid	146.44
373.55 K, 6030 kPa, Liquid	187.59
373.56 K, 6990 kPa, Liquid	159.83
373.56 K, 10990 kPa, Liquid	128.66
373.57 K, 7500 kPa, Liquid	151.89
373.58 K, 6510 kPa, Liquid	170.77
373.58 K, 10550 kPa, Liquid	130.44
383.1 K, 6560 kPa, Liquid	239.16
383.57 K, 7020 kPa, Liquid	204.1
383.71 K, 10040 kPa, Liquid	140.17
383.71 K, 10550 kPa, Liquid	136.16
383.74 K, 9490 kPa, Liquid	145.93
383.74 K, 11270 kPa, Liquid	132.02
383.78 K, 7490 kPa, Liquid	182.33
383.81 K, 9090 kPa, Liquid	151.38
383.86 K, 7980 kPa, Liquid	172.97
383.87 K, 8520 kPa, Liquid	160.93
383.88 K, 12030 kPa, Liquid	129.42

O [water]
Liquid
Settings	molar heat capacity at constant pressure [J/K/mol]
304.24 K, 100 kPa	75.43
304.28 K, 3030 kPa	74.86
304.36 K, 11970 kPa	74.97
304.37 K, 6180 kPa	75.16
304.4 K, 9010 kPa	74.98
323.09 K, 90 kPa	75.69
323.13 K, 3180 kPa	75.16
323.15 K, 6040 kPa	74.94
323.17 K, 9000 kPa	74.7
323.19 K, 11970 kPa	74.58
371.11 K, 990 kPa	76.21
371.19 K, 2980 kPa	75.91
371.24 K, 5990 kPa	75.65
371.27 K, 9030 kPa	75.39
371.3 K, 12040 kPa	75.11
424.19 K, 12070 kPa	77.23
424.24 K, 1390 kPa	77.92
424.29 K, 3030 kPa	77.82
424.35 K, 6180 kPa	76.99
424.43 K, 9080 kPa	76.79
424.52 K, 15080 kPa	76.51
473.34 K, 2710 kPa	80.78
473.45 K, 6220 kPa	80.48
473.51 K, 9230 kPa	80.25
473.56 K, 12190 kPa	80.08
473.61 K, 15070 kPa	79.73
526 K, 6030 kPa	87.65
526.12 K, 9260 kPa	87.01
526.17 K, 12250 kPa	86.6
526.23 K, 15120 kPa	86.16
577.06 K, 9960 kPa	104.34
577.11 K, 11800 kPa	102.67
577.14 K, 13510 kPa	102.15
577.18 K, 15110 kPa	100.84
